According to the supplement of paper PMC11208160:

assay: recombinant UMI read abundance after kanamycin selection (control-corrected) (log10(CPM+1)); higher = more efficient recombination; extreme values may be limits of the assay; sequences stand for … in AGTGCAGAGAAAATCGGCCAGTTTTCTCTGCCTGCAGTCCGCATGCCGTGGGACCCCTTGGGTTCTAACCTGTTGCCTAGATTTATGCAGCGGACTGCCTTTCTCCCAAAGTGATAAACCGG…AGGTTGGTTTCACT; site = the 11-nt donor
In short: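 Counts of recombinant UMIs were reported as log10(CPM+1). Before that, they were converted to CPM, averaged over replicates and scaled using control-derived factors. They came from PCR across the donor–target junction after Escherichia coli carrying the pair library and target plasmid was plated on IPTG (0.07 mM) plus kanamycin, or unselected, in two replicates each.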
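Note: IS621 bridge recombinase in Escherichia coli cells against a fixed T5 target plasmid.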

In order of falling “recombinant UMI read abundance (log10)” value:
1. TGGCCGGCATGGACCGGTTTTCCCGGTAATCCGTATTTGGC (site TGGCCGGCTGC)  0.862
2. TGGCCGTCATGGACCGGTTTTCCCGGTAATCCGTATTTGAG (site TGGCCGTCTCT)  0.297
3. TGGCCGGCATGGACCGGTTTTCCCGGTAATCCGTATTTGGC (site TGGCCGGCTAC)  0.0414
4. TGGCCGGCATGGACCGGTTTTCCCGGTAATCCGTATTTGGC (site TGGCCGGCTCC)  0.0175
5. TGGCTAGCATGGACCGGTTTTCCCGGTAATCCGTATTTGAA (site TCGCTAGCTTT)  0.0168
6. TGGCTAGCATGGACCGGTTTTCCCGGTAATCCGTATTTGAA (site TAGCTAGCTTT)  0.00919
7. TGGCCGGCATGGACCGGTTTTCCCGGTAATCCGTATTTGGC (site TTGCCGGCTGC)  0.00854
8. TGGCCGGCATGGACCGGTTTTCCCGGTAATCCGTATTTGGC (site TGGTCGGCTGC)  0.00844
9. TGGCCGGCATGGACCGGTTTTCCCGGTAATCCGTATTTGGC (site TGGCCGGCTTC)  0.00718
10. TGGCCGCCATGGACCGGTTTTCCCGGTAATCCGTATTTGGC (site TGGCCGGCTGC)  0
11. TGGCCGCCATGGACCGGTTTTCCCGGTAATCCGTATTTGGC (site TGGCCGTCTGC)  0
12. TGGCCGGCATGGACCGGTTTTCCCGGTAATCCGTATTTGGC (site AGGCCGGCTGC)  0
13. TGGCCGGCATGGACCGGTTTTCCCGGTAATCCGTATTTGGC (site CGGCCGGCTGC)  0
14. TGGCCGGCATGGACCGGTTTTCCCGGTAATCCGTATTTGGC (site GGGCCGGCTGC)  0
15. TGGCCGGCATGGACCGGTTTTCCCGGTAATCCGTATTTGGC (site TAGCCGGCTGC)  0
16. TGGCCGGCATGGACCGGTTTTCCCGGTAATCCGTATTTGGC (site TCGCCGGCTGC)  0
17. TGGCCGGCATGGACCGGTTTTCCCGGTAATCCGTATTTGGC (site TGACCGGCTGC)  0
18. TGGCCGGCATGGACCGGTTTTCCCGGTAATCCGTATTTGGC (site TGCCCGGCTGC)  0
19. TGGCCGGCATGGACCGGTTTTCCCGGTAATCCGTATTTGGC (site TGGACGGCTGC)  0
20. TGGCCGGCATGGACCGGTTTTCCCGGTAATCCGTATTTGGC (site TGGCAGGCTGC)  0
21. TGGCCGGCATGGACCGGTTTTCCCGGTAATCCGTATTTGGC (site TGGCCAGCTGC)  0
22. TGGCCGGCATGGACCGGTTTTCCCGGTAATCCGTATTTGGC (site TGGCCCGCTGC)  0
23. TGGCCGGCATGGACCGGTTTTCCCGGTAATCCGTATTTGGC (site TGGCCGACTGC)  0
24. TGGCCGGCATGGACCGGTTTTCCCGGTAATCCGTATTTGGC (site TGGCCGCCTGC)  0
25. TGGCCGGCATGGACCGGTTTTCCCGGTAATCCGTATTTGGC (site TGGCCGGCTGA)  0
26. TGGCCGGCATGGACCGGTTTTCCCGGTAATCCGTATTTGGC (site TGGCCGGCTGG)  0
27. TGGCCGGCATGGACCGGTTTTCCCGGTAATCCGTATTTGGC (site TGGCCGGCTGT)  0
28. TGGCCGGCATGGACCGGTTTTCCCGGTAATCCGTATTTGGC (site TGGCCGTCTGC)  0
29. TGGCCGGCATGGACCGGTTTTCCCGGTAATCCGTATTTGGC (site TGGCCTGCTGC)  0
30. TGGCCGGCATGGACCGGTTTTCCCGGTAATCCGTATTTGGC (site TGGCGGGCTGC)  0
31. TGGCCGGCATGGACCGGTTTTCCCGGTAATCCGTATTTGGC (site TGGCTGGCTGC)  0
32. TGGCCGGCATGGACCGGTTTTCCCGGTAATCCGTATTTGGC (site TGGGCGGCTGC)  0
33. TGGCCGGCATGGACCGGTTTTCCCGGTAATCCGTATTTGGC (site TGTCCGGCTGC)  0
34. TGGCCTGCATGGACCGGTTTTCCCGGTAATCCGTATTTGGC (site TGGCCAGCTGC)  0
35. TGGCCTGCATGGACCGGTTTTCCCGGTAATCCGTATTTGGC (site TGGCCCGCTGC)  0
36. TGGCCTGCATGGACCGGTTTTCCCGGTAATCCGTATTTGGC (site TGGCCGGCTGC)  0
37. TGGCCTGCATGGACCGGTTTTCCCGGTAATCCGTATTTGGC (site TGGCCTGCTGC)  0
